Biological target: T1, VEGFR-2 (vascular endothelial growth factor receptor 2) (Homo sapiens, UniProt P35968)
T1 construct: gene KDR; second and third IgG-like domains of VEGFR-2 (VEGFR-2 IG3)
Experiment: SPR (Biacore T100, VEGFR-2 IG3 immobilized by amine coupling on CM5)
Assay type: binding

T1 sequence (P35968 141-320 limits assumed): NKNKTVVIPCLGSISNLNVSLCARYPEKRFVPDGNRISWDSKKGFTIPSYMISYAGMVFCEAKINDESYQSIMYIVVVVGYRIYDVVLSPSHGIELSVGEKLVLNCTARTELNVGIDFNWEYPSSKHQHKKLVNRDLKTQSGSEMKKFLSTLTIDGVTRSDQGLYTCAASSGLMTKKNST

Row | Structure (SMILES) | Kd [nM]
1 | CC(=O)N[C@H]1[C@H]([C@H](O)[C@H](O)CO)OC(OC[C@H]2OC(O)[C@H](O)[C@@H](O)[C@H]2O)(C(=O)O)C[C@@H]1O (some centres unmarked) [6SG, 6′-sialylgalactose] | 2.35
2 | CC(=O)N[C@H]1[C@H]([C@H](O)[C@H](O)CO)OC(OC[C@H]2O[C@@H](O[C@H]3[C@H](O)[C@@H](O)C(O)O[C@@H]3CO)[C@H](O)[C@@H](O)[C@H]2O)(C(=O)O)C[C@@H]1O (some centres unmarked) [6SL, 6′-sialyllactose] | 3.05
